Data: patent publication US4241083A, “Germicidal composition for agriculture and horticulture” (priority 1978, dated 1980)

Key:
Valsa ceratosperma = assay: Length of disease spots on apple branches treated on the third day after inoculation (Ex. 17); format: in vivo; settings: 1000 ppm on third day after inoculation
Procedure: Branches of Delicious apple (branch diameter: about 1 cm. thick) grown for 1-2 years were cut to 10 cm. length. The cut branches were dried in a low temperature chamber (3° C.) until the water content of the cut branches became 50%. The dried cut branches were immersed in an aqueous solution of ethyl 2-(2-hydroxyethylamino)-3-benzoylpropionate hydrochloride (500 ppm, 1000 ppm and 2500 ppm) for one minute and then dried.
Each cut branch was end bored by a white heated 8 mm diameter cork borer. Valsa ceratosperma, previously cultured for four days on a potato dextrose-agar culture medium, was introduced into the branch by inoculating the branch with the Valsa ceratosperma containing culture by means of the sterilized cork borer. The branches prepared in this way were placed on wet filter paper spread in a polyethylene tray. The tray was inserted into a polyethylene bag which was sealed and then the bag was put into a thermostat (25° C.) for various controlled times.
After removal from the thermostat, the length of disease spots on each branch was measured.
The same experiment as in Example 16 was carried out except that the apple branches were treated with the germicides (1000 ppm) on the third day after the branches were inoculated with the germ. The lengths of disease spots on the third day […], fifth day and seventh day were 5.1 mm, 5.2 mm and 5.2 mm respectively.

[1] = tested on: Colletotrichum lagenarium; assay: Growth of germs on potato dextrose-agar medium containing the compound (Ex. 10, germ of anthracnose on watermelons); format: cell-based; parameters: key: +++: extremely much growth; ++: much growth; +: a little growth; -: no growth; settings: two weeks, 25° C.
Procedure: (§1) Ethyl 2-(2-hydroxyethylamino)-3-benzoylpropionate hydrochloride was added to potato dextrose-agar culture medium in the concentration indicated in Table 1 and the suspensions of various kinds of germs were dropped on the culture medium. After incubation of the germs for two weeks in thermostat (25° C.), the growing conditions were observed.
(§2) In Table 1, +++, ++, + and - represent "extremely much growth", "much growth", "a little growth" and "no growth" respectively.
^2 Germ of anthracnose on watermelons

Cladosporium fulvum = assay: Growth of germs on potato dextrose-agar medium containing the compound (Ex. 5); format: cell-based; parameters: key: +++: extremely much growth; ++: much growth; +: a little growth; -: no growth; settings: two weeks, 25° C.
Procedure: as §1, §2

Pyrenochaeta sp. = assay: Growth of germs on potato dextrose-agar medium containing the compound (Ex. 14); format: cell-based; parameters: key: +++: extremely much growth; ++: much growth; +: a little growth; -: no growth; settings: two weeks, 25° C.
Procedure: as §1, §2

Sphaerotheca fuliginea = assay: Prevention effect for powdery mildew on cucumbers (Ex. 20, 21); format: in vivo; settings: Table 5; for Germicidal damage to seedlings: cucumber seedlings; for Percentage of leaf area with disease spots / Percentage of leaves attacked with the disease / Prevention value per leaf (Perfect prevention = 100): third and ninth days, read fifteenth day after inoculation
Procedure: The prevention effect for powdery mildew on cucumbers caused by Sphaerotheca fuliginea was examined in the following manner.
Cucumber seedlings (bifoliate age) of Tokiwa Hikari No. 3 (p type) variety planted in sections of two rows of three were inoculated with the above germ by brushing on spores from a cucumber leaf attacked with powdery mildew. […]
The leaf area on which powdery mildew spots appeared was measured on the fifteenth day after the seedlings were inoculated with the germ. The spotted area is expresses as a prevention value.
The same experiment as Example 20 was carried out except that isopropyl 2-(2-hydroxyethylamino)-3-benzoyl-propionate hydrochloride was used instead of ethyl 2-(2-hydroxyethylamino)-3-benzoylpropionate hydrochloride.

[2] = tested on: Colletotrichum lagenarium; assay: Growth of germs on potato dextrose-agar medium containing the compound (Ex. 9, germ of anthracnose on cucumbers); format: cell-based; parameters: key: +++: extremely much growth; ++: much growth; +: a little growth; -: no growth; settings: two weeks, 25° C.
Procedure: as §1, §2
^1 Germ of anthracnose on cucumbers

Verticillium alboatrum = assay: Growth of germs on potato dextrose-agar medium containing the compound (Ex. 2); format: cell-based; parameters: key: +++: extremely much growth; ++: much growth; +: a little growth; -: no growth; settings: two weeks, 25° C.
Procedure: as §1, §2

Cladosporium cucumerium = assay: Prevention effect for cucumber scab (Ex. 19); format: in vivo; settings: for Germicidal damage to seedlings: cucumber seedlings; for Percentage of leaf area with disease spots / Percentage of leaves attacked with the disease / Prevention value per leaf (Perfect prevention = 100): eighth day after spraying
Text: The prevention effect for cucumber scab was examined in the following manner.
An aqueous solution of ethyl 2-(2-hydroxyethylamino)-3-benzoylpropionate hydrochloride (2500 ppm or 5000 ppm) was sprayed on cucumber seedlings (bifoliate age) of Tokiwa Hikari No. 3 (p type) variety which were planted in sections in two rows of three.
After air-drying the seedlings, a spore suspention of Cladosporium cucumerium was inoculated on the test seedlings by means of a glass sprayer. The inoculated seedlings were kept at 18°-20° C. for four days in an inoculation box and then allowed to stand in a glass chamber.
The leaf area on which scab spots appeared was measured on the eighth day after spraying the aqueous germicide solution. The spotted area is expressed as a prevention value.

How did the “lengths of disease spots” value (Valsa ceratosperma; fifth day) turn out when `CCOC(=O)C(CC(=O)c1ccccc1)NCCO.Cl` (centres unmarked) [Ethyl 2-(2-hydroxyethylamino)-3-benzoylpropionate hydrochloride] was run?
Its value is 5.2 mm.

What about the “lengths of disease spots” value (Valsa ceratosperma; seventh day) of the same compound?
The value was 5.2 mm.

What about the “lengths of disease spots” value (Valsa ceratosperma; third day) of the same compound?
The value was 5.1 mm.

What about the “growing conditions (growth of germ)” value ([1]; 10 ppm) of the same compound?
The value was “++”.

And the “growing conditions (growth of germ)” value ([1]; 20 ppm)?
The value was “++”.

And the “growing conditions (growth of germ)” value ([1]; 50 ppm)?
Its value is “-”.

What about the “growing conditions (growth of germ)” value ([1]; 100 ppm) of the same compound?
The value was “-”.

What about the “growing conditions (growth of germ)” value ([1]; 200 ppm) of the same compound?
The value was “-”.

And the “growing conditions (growth of germ)” value (Cladosporium fulvum; 10 ppm)?
Its value is “++”.

What about the “growing conditions (growth of germ)” value (Cladosporium fulvum; 20 ppm) of the same compound?
Its value is “-”.

What about the “growing conditions (growth of germ)” value (Cladosporium fulvum; 50 ppm) of the same compound?
Its value is “-”.

What about the “growing conditions (growth of germ)” value (Cladosporium fulvum; 100 ppm) of the same compound?
Its value is “-”.

What about the “growing conditions (growth of germ)” value (Cladosporium fulvum; 200 ppm) of the same compound?
Its value is “-”.

What about the “growing conditions (growth of germ)” value (Pyrenochaeta sp.; 10 ppm) of the same compound?
Its value is “++”.

What about the “growing conditions (growth of germ)” value (Pyrenochaeta sp.; 20 ppm) of the same compound?
Its value is “++”.

And the “growing conditions (growth of germ)” value (Pyrenochaeta sp.; 50 ppm)?
The value was “-”.

And the “growing conditions (growth of germ)” value (Pyrenochaeta sp.; 100 ppm)?
Its value is “-”.

What about the “growing conditions (growth of germ)” value (Pyrenochaeta sp.; 200 ppm) of the same compound?
Its value is “-”.

What about the “Germicidal damage to seedlings” value (Sphaerotheca fuliginea; 2500 ppm) of the same compound?
The value was “none”.

And the “Percentage of leaf area with disease spots” value (“Percentage of leaf area” below) (Sphaerotheca fuliginea; 2500 ppm)?
Its value is 0%.

And the “Percentage of leaves attacked with the disease” value (“Percentage of leaves attacked” for short) (Sphaerotheca fuliginea; 2500 ppm)?
Its value is 0%.

What about the “Prevention value per leaf (Perfect prevention = 100)” value (from here on “Prevention value per leaf”) (Sphaerotheca fuliginea; 2500 ppm) of the same compound?
The value was 100.

What about the “Germicidal damage to seedlings” value (Sphaerotheca fuliginea; 5000 ppm) of the same compound?
The value was “none”.

What about the “Percentage of leaf area” value (Sphaerotheca fuliginea; 5000 ppm) of the same compound?
The value was 0%.

And the “Percentage of leaves attacked” value (Sphaerotheca fuliginea; 5000 ppm)?
Its value is 0%.

What about the “Prevention value per leaf” value (Sphaerotheca fuliginea; 5000 ppm) of the same compound?
Its value is 100.

What about the “growing conditions (growth of germ)” value ([2]; 10 ppm) of the same compound?
The value was “+++”.

And the “growing conditions (growth of germ)” value ([2]; 20 ppm)?
Its value is “-”.

And the “growing conditions (growth of germ)” value ([2]; 50 ppm)?
The value was “-”.

What about the “growing conditions (growth of germ)” value ([2]; 100 ppm) of the same compound?
Its value is “-”.

And the “growing conditions (growth of germ)” value ([2]; 200 ppm)?
The value was “-”.

What about the “growing conditions (growth of germ)” value (Verticillium alboatrum; 10 ppm) of the same compound?
Its value is “+++”.

What about the “growing conditions (growth of germ)” value (Verticillium alboatrum; 20 ppm) of the same compound?
The value was “++”.

What about the “growing conditions (growth of germ)” value (Verticillium alboatrum; 50 ppm) of the same compound?
The value was “-”.

What about the “growing conditions (growth of germ)” value (Verticillium alboatrum; 100 ppm) of the same compound?
The value was “-”.

What about the “growing conditions (growth of germ)” value (Verticillium alboatrum; 200 ppm) of the same compound?
The value was “-”.

What about the “Germicidal damage to seedlings” value (Cladosporium cucumerium; 2500 ppm) of the same compound?
Its value is “none”.

What about the “Percentage of leaf area” value (Cladosporium cucumerium; 2500 ppm) of the same compound?
The value was 25.0%.

What about the “Percentage of leaves attacked” value (Cladosporium cucumerium; 2500 ppm) of the same compound?
Its value is 100%.

And the “Prevention value per leaf” value (Cladosporium cucumerium; 2500 ppm)?
The value was 63.4.

What about the “Germicidal damage to seedlings” value (Cladosporium cucumerium; 5000 ppm) of the same compound?
The value was “none”.

And the “Percentage of leaf area” value (Cladosporium cucumerium; 5000 ppm)?
The value was 20.0%.

And the “Percentage of leaves attacked” value (Cladosporium cucumerium; 5000 ppm)?
The value was 100%.

What about the “Prevention value per leaf” value (Cladosporium cucumerium; 5000 ppm) of the same compound?
The value was 70.7.
